From patent US11708367B2, “Compounds for the treatment of kinase-dependent disorders” (Exelixis, Inc., priority 2018, dated 2023)

What was measured:
[1] = molecular target: Mer (Homo sapiens (Human), UniProt Q12866); assay: Human Mer kinase assay (33P radiometric, KinaseProfiler); assay type: biochemical; conditions: 10 μM ATP
Method: (§1) Kinase activity and compound inhibition were investigated using the ^33P-Phosphoryl transfer radiometric kinase assay, performed using the KinaseProfiler™ service of Eurofins Pharma Discovery Services UK Limited. Dose-response experiments were performed using nine compound concentrations in a 96-well microtiter plate. For each assay, all compounds were prepared to a 50× final assay concentration (50 μM) in 100% DMSO, then diluted in a half-log series, with the final top concentration at 1 μM. This working stock of the compound was added to the assay well as the first component in the reaction, followed by the remaining components as detailed in the following assay protocols below. The positive control wells (100% kinase activity) contain all components of the reaction including 2% DMSO (control for solvent effects), except the compound of interest. Blank wells contain all components of the reaction, with the reference inhibitor, staurosporine. This reference compound was used to abolish kinase activity and generated the 0% kinase activity base-line. IC50 values were calculated by nonlinear regression analysis using the sigmoidal dose-response (variable slope) curve fit on XLFit version 5.3 (ID Business Solutions).
Human Mer (residues R557-E882 with H628Q and R794A, 0.7 nM) was incubated with 8 mM MOPS pH 7.0, 0.2 mM EDTA, 30 mM NaCl, 250 μM GGMEDIYFEFMGGKKK (SEQ ID NO. 44), 10 mM magnesium acetate, and 10 μM [γ-33P-ATP]. The reaction was initiated by the addition of the Mg/ATP mix. After incubation for 40 minutes at room temperature, the reaction was stopped by the addition of phosphoric acid to a concentration of 0.5%. A reaction aliquot of 10 μL was then spotted onto a P30 filtermat and washed four times for 4 minutes in 0.425% phosphoric acid and once in methanol prior to drying and scintillation counting. Incorporated 33P was measured using the Wallac Microbeta scintillation counter (Perkin Elmer).

[2] = molecular target: T1, Met (Homo sapiens (Human), UniProt P08581); assay: Human Met kinase assay (33P radiometric, KinaseProfiler); assay type: biochemical; conditions: 10 μM ATP, read-out: c-Met IC50
Method: as §1
Human Met (residues R974-S1390 with A1209G and V1290L, 3.4 nM) was incubated with 8 mM MOPS pH 7.0, 0.2 mM EDTA, 250 µM KKKGQEEEYVFIE (SEQ ID NO. 45), 1 mM sodium orthovanadate, 5 mM […], 10 mM magnesium acetate, and 10 μM [γ-33P-ATP]. The reaction was initiated by the addition of the Mg/ATP mix. After incubation for 40 minutes at room temperature, the reaction was stopped by the addition of phosphoric acid to a concentration of 0.5%. A reaction aliquot of 10 μL was then spotted onto a P30 filtermat and washed four times for 4 minutes in 0.425% phosphoric acid and once in methanol prior to drying and scintillation counting. Incorporated 33P was measured using the Wallac Microbeta scintillation counter (Perkin Elmer).

[3] = molecular target: T1, Met; assay: Met autophosphorylation ELISA in PC-3 cells; assay type: cell-based; conditions: cellular, HGF-stimulated, phospho-Met ELISA, read-out: c-Met IC50
Summary of the method: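 Serum-starved PC-3 cells treated 1 h with compound (8-point series, 0.3% DMSO), then stimulated 10 min with 100 ng/mL HGF. Phospho-Met (panTyr) quantified in lysates by sandwich ELISA; IC50 from 4-parameter logistic fit against DMSO and reference-inhibitor controls.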
Target sequence in this assay (P08581 25-1390): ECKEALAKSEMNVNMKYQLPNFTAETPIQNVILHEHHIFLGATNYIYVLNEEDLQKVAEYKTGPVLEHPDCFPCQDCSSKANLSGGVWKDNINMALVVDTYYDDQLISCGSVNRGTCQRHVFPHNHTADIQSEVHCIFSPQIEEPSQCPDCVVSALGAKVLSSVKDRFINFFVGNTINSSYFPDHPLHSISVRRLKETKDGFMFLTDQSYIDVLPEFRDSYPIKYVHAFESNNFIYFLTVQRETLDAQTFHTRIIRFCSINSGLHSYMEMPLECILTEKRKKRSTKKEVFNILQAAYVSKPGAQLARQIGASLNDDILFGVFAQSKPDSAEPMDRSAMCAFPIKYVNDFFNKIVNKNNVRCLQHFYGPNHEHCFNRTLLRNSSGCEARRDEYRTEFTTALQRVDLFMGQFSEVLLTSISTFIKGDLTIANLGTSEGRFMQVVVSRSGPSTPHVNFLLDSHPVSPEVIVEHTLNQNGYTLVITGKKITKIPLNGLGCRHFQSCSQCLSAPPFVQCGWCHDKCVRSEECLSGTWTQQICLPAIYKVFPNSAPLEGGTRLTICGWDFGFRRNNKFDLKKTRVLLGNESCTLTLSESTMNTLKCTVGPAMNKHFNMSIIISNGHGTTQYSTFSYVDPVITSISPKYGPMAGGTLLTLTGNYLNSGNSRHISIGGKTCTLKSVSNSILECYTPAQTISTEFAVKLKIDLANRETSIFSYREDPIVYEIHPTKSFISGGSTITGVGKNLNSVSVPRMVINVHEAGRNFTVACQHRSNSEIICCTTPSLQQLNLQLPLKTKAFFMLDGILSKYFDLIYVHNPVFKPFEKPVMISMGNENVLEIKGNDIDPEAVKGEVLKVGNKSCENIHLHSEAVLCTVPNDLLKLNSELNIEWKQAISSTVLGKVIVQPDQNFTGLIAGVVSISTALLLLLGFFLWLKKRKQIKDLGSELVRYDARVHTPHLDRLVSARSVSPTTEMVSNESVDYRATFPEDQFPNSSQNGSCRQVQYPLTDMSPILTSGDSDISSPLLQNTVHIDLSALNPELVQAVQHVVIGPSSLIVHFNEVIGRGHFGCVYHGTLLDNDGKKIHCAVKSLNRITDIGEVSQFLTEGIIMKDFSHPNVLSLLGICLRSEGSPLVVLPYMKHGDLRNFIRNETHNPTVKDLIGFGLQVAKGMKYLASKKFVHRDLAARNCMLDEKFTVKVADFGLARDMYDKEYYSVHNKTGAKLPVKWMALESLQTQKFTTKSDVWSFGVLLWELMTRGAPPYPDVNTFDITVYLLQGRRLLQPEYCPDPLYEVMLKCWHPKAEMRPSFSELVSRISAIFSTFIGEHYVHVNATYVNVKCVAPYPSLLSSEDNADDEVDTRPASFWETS

[4] = molecular target: KDR (Homo sapiens (Human), UniProt P35968); assay: KDR autophosphorylation ELISA in HUVEC cells; assay type: cell-based; conditions: cellular, VEGF165-stimulated, phospho-KDR ELISA
KDR, sequence (P35968 20-1356): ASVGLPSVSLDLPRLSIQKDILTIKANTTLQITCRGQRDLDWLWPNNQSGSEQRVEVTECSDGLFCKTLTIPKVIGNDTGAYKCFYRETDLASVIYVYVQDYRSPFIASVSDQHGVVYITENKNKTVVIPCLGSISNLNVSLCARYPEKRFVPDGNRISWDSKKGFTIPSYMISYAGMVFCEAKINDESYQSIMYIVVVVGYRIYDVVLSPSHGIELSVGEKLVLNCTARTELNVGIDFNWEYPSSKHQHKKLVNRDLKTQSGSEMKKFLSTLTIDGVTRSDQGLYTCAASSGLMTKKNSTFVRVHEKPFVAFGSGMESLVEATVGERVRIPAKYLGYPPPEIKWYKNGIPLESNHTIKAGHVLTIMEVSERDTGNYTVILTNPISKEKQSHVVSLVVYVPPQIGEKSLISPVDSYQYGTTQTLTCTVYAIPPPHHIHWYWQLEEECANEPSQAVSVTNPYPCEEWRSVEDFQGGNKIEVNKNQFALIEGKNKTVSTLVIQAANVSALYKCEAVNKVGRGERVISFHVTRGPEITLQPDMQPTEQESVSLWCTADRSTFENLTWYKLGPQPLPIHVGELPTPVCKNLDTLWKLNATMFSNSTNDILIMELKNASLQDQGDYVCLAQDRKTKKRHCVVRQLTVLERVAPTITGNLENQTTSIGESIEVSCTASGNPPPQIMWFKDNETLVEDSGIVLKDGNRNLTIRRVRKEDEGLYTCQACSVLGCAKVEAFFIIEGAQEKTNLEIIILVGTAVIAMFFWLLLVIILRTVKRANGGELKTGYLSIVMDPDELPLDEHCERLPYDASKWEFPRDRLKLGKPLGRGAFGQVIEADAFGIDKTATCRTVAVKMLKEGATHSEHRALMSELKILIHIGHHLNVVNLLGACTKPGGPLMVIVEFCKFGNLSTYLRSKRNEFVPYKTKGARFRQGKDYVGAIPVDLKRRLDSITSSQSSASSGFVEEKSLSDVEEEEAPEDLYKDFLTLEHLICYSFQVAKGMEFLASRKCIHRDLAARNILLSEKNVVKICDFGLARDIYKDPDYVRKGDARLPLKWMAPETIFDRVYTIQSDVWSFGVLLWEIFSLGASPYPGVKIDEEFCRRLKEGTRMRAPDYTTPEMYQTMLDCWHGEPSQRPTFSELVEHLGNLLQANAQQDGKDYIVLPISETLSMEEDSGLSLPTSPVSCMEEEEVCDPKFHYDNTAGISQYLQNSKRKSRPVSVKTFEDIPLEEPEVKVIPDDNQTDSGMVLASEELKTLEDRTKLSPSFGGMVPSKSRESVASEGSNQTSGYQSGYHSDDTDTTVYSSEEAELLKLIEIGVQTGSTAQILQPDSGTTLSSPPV
Summary of the method: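 Serum-starved (24 h) HUVECs were pre-treated with compound (8-point dose curve, 0.3% DMSO final) for 1 h, then stimulated with 100 ng/mL human VEGF165 for 5 min. Lysate phospho-KDR was quantified by ELISA against a phospho-KDR standard. IC50 came from a 4-parameter logistic fit, normalized to stimulated-DMSO (100%) and unstimulated (0%) controls.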

Mer, sequence (Q12866 557-882): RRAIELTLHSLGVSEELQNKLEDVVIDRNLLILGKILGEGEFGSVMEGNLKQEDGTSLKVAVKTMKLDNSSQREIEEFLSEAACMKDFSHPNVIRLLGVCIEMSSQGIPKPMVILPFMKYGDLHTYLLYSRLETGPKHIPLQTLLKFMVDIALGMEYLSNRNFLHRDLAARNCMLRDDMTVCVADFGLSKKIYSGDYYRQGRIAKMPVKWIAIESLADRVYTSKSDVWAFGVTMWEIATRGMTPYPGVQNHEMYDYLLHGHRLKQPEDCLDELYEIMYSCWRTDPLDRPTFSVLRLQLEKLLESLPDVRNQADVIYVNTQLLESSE

Structure (SMILES)	IC50 [1] [nM]	IC50 [2] [nM]	IC50 [3] [nM]	IC50 [4] [nM]
COc1cc2ncnc(Oc3ccc(NC(=O)C4(C(=O)Nc5ccc(F)cc5)CC4)cc3)c2cc1C(=O)NC[C@@H]1CCCN1C(=O)OC(C)(C)C [Compound 120, tert-butyl (2S)-2-[[[4-[4-[[1-[(4-fluoro-phenyl)carbamoyl]cyclo-propane-carbonyl]amino]phenoxy]-7-methoxyquinazoline-6-carbonyl]amino]methyl]pyr-rolidine-1-carboxylate]	10 to 100	100 to 1000	> 300	100 to 300
COc1cc2ncnc(Oc3ccc(NC(=O)C4(C(=O)Nc5ccc(F)cc5)CC4)cc3)c2cn1 [Compound 104, 1-N′-(4-fluorophenyl)-1-N-[4-(7-methoxypyrido[4,3-d]pyrimidin-4-yl)oxy-phenyl]cyclopropane-1,1-dicarboxamide]	10 to 100	10 to 100	> 300	> 300
COc1cc2nccc(Oc3ccc(NC(=O)C4(C(=O)Nc5ccc(F)cc5)CC4)cc3)c2nc1OC [Compound 139, 1-N-[4-[(6,7-dimethoxy-1,5-naphthyridin-4-yl)oxy]phenyl]-1-N′-(4-fluorophenyl)cyclo-propane-1,1-dicarboxamide]	≤ 10	≤ 10	10 to 100	≤ 10
COc1cc2nccc(Oc3ccc(NC(=O)C4(C(=O)Nc5ccc(F)cc5)CC4)cc3F)c2nc1OC [Compound 140, 1-N′-[4-[(6,7-dimethoxy-1,5-naphthyridin-4-yl)oxy]-3-fluorophenyl]-1-N-(4-fluorophenyl)cyclopropane-1,1-dicarboxamide]	≤ 10	≤ 10	≤ 10	≤ 10
COc1cc2ncnc(Oc3ccc(NC(=O)C4(C(=O)Nc5ccc(F)cc5)CC4)cc3)c2cc1C(=O)NC1CC1 [Compound 116, 1-N-[4-[6-(cyclopropylcarbamoyl)-7-methoxyquinazolin-4-yl]oxyphenyl]-1-N′-(4-fluorophenyl)cyclopropane-1,1-dicarboxamide]	10 to 100	10 to 100	100 to 300	10 to 100
COc1nc2c(Oc3ccc(NC(=O)C4(C(=O)Nc5ccc(F)cc5)CC4)cc3Cl)ncnc2cc1OCCCN1CCOCC1 [Compound 66, 1-N′-[3-chloro-4-[6-methoxy-7-(3-morpholin-4-ylpropoxy)pyrido[3,2-d]pyrimidin-4-yl]oxyphenyl]-1-N-(4-fluorophenyl)cyclo-propane-1,1-dicarboxamide]	≤ 10	≤ 10	10 to 100	≤ 10
COc1cc2ncnc(Oc3ccc(NC(=O)C4(C(=O)Nc5ccc(F)cc5)CC4)cc3)c2cc1C(=O)NC[C@H]1CCCN1 [Compound 121, 1-N′-(4-fluorophenyl)-1-N-[4-[7-methoxy-6-[[(2R)-pyrrolidin-2-yl]methyl-carbamoyl]quinazolin-4-yl]oxyphenyl]cyclopropane-1,1-dicarboxamide]	≤ 10	≤ 10	100 to 300	100 to 300
COc1cc2ncnc(Oc3ccc(NC(=O)C4(C(=O)Nc5ccc(F)cc5)CC4)cc3)c2cc1C(=O)NC1COC1 [Compound 115, 1-N′-(4-fluorophenyl)-1-N-[4-[7-methoxy-6-(oxetan-3-ylcarbamoyl)quinazolin-4-yl]oxyphenyl]cyclopropane-1,1-dicarboxamide]	10 to 100	10 to 100	100 to 300	10 to 100
COc1cc2ncnc(Oc3ccc(NC(=O)C4(C(=O)Nc5ccc(F)cc5)CC4)cc3)c2cc1C(N)=O [Compound 117, 1-N-[4-(6-carbamoyl-7-methoxyquinazolin-4-yl)oxyphenyl]-1-N′-(4-fluorophenyl)cyclopropane-1,1-dicarboxamide]	≤ 10	10 to 100	100 to 300	10 to 100
COc1cc2ncnc(Oc3ccc(NC(=O)C4(C(=O)Nc5ccc(F)cc5)CC4)cc3)c2cc1C(=O)NC[C@H]1CCCN1C(=O)OC(C)(C)C [Compound 119, tert-butyl (2R)-2-[[[4-[4-[[1-[(4-fluoro-phenyl)carbamoyl]cyclo-propane-carbonyl]amino]phenoxy]-7-methoxyquinazoline-6-carbonyl]amino]methyl]pyr-rolidine-1-carboxylate]	10 to 100	100 to 1000	> 300	10 to 100
COc1cc2ncnc(Oc3ccc(NC(=O)C4(C(=O)Nc5ccc(F)cc5)CC4)cc3)c2cc1C(=O)NCCN1CCCC1 [Compound 118, 1-N′-(4-fluorophenyl)-1-N-[4-[7-methoxy-6-(2-pyrrolidin-1-ylethyl-carbamoyl)quinazolin-4-yl]oxyphenyl]cyclopropane-1,1-dicarboxamide]	≤ 10	10 to 100	100 to 300	100 to 300
COc1cc2ncnc(Oc3ccc(NC(=O)C4(C(=O)Nc5ccc(F)cc5)CC4)cc3)c2nc1OC [Compound 28, 1-N-[4-(6,7-dimethoxy-pyrido[3,2-d]pyrimidin-4-yl)oxyphenyl]-1-N′-(4-fluorophenyl)cyclo-propane-1,1-dicarboxamide]	≤ 10	10 to 100	100 to 300	10 to 100
COc1nc2c(Oc3ccc(NC(=O)C4(C(=O)Nc5ccc(F)cc5)CC4)cc3)ncnc2cc1OCCCN1CCOCC1 [Compound 65, 1-N′-(4-fluorophenyl)-1-N-[4-[6-methoxy-7-(3-morpholin-4-ylpropoxy)pyrido[3,2-d]pyrimidin-4-yl]oxyphenyl]cyclopropane-1,1-dicarboxamide]	≤ 10	10 to 100	10 to 100	≤ 10
COc1cc2nccc(Oc3ccc(NC(=O)C4(C(=O)Nc5ccc(F)cc5)CC4)cc3Cl)c2nc1OC [Compound 141, 1-N′-[3-chloro-4-[(6,7-dimethoxy-1,5-naphthyridin-4-yl)oxy]phenyl]-1-N-(4-fluorophenyl)cyclo-propane-1,1-dicarboxamide]	≤ 10	≤ 10	≤ 10	≤ 10
COc1cc2ncnc(Oc3ccc(NC(=O)C4(C(=O)Nc5ccc(F)cc5)CC4)cc3F)c2nc1OC [Compound 30, 1-N′-[4-(6,7-dimethoxypyrido[3,2-d]pyrimidin-4-yl)oxy-3-fluorophenyl]-1-N-(4-fluorophenyl)cyclopropane-1,1-dicarboxamide]	≤ 10	≤ 10	10 to 100	≤ 10
COc1cc2ncnc(Oc3ccc(NC(=O)C4(C(=O)Nc5ccc(F)cc5)CC4)cc3)c2cc1C(=O)NC[C@@H]1CCCN1 [Compound 122, 1-N′-(4-fluorophenyl)-1-N-[4-[7-methoxy-6-[[(2S)-pyrrolidin-2-yl]methyl-carbamoyl]quinazolin-4-yl]oxyphenyl]cyclopropane-1,1-dicarboxamide]	≤ 10	10 to 100	100 to 300	> 300
COc1cc2c(Oc3ccc(NC(=O)C4(C(=O)Nc5ccc(F)cc5)CC4)cc3)ncnc2cn1 [Compound 91, 1-N′-(4-fluorophenyl)-1-N-[4-(6-methoxypyrido[3,4-d]pyrimidin-4-yl)oxyphenyl]cyclopropane-1,1-dicarboxamide]	10 to 100	100 to 1000	> 300	> 300
